Here are results for 23 compounds from patent publication US12419900B2, “Induction of synthetic lethality with epigenetic therapy” (The Johns Hopkins University, priority 2017, dated 2025).

Read-outs that look alike come from different tables or passages of the source.

For assay [1], the system named is DU145 prostate cancer cells. In words: Alamar blue cell viability and growth, alisertib x decitabine dose matrix. It counts as cell-based. To be noted: Aurora kinase inhibitor + decitabine. The method, then: DU145 prostate cancer cells and A549 lung cancer cells were treated with varying concentrations (0 nM, 10 nM, 50 nM, and 100 nM) of alisertib in addition to varying concentrations of decitabine (0 nM, 50 nM, 100 nM, and 250 nM). Representative data are shown in FIGS. 2A and 2B, as well as the Tables below. […] In each panel, a dose response of each drug alone and in combination was used in Alamar blue cell viability assays. […] Formal synergy analyses were performed using the Bliss independence score (where values greater than zero indicate greater than additive effect). […] The graph of FIG. 2A is a growth curve of the DU145 prostate cancer cells for the agents alone (decitabine and alisertib separately), a vehicle control, and the agents in combination (decitabine and alisertib together). […] Likewise, the graph of FIG. 2B is a growth curve of the A549 lung cancer cells for the agents alone (decitabine and alisertib separately), a vehicle control, and the agents in combination (decitabine and alisertib together). […] The synergy analysis of the combination of decitabine and alisertib was evaluated in a series of 18 cancer cell lines (9 prostate, 1 ovarian, 1 lung, 2 colon, 2 central nervous system, and 3 breast cancer cell lines) and 2 non-cancer cell models.
Background: The colour change of resazurin is a common sign of viable cells or microbes.

Assay [2] deals with PC-3 cancer cells. In words: Chemical library screen (JHDL), second stage, dose response matrix with decitabine. The assay is classed as cell-based. From the text: Cells were exposed to each dose of decitabine for four consecutive days prior to addition of each dose of the identified compounds for three consecutive days. […] FIG. 30 is a bar graph illustrating the Bliss Independence score values for the cells of the compounds identified.

The subject of assay [3] is retinoic acid signaling pathway. In words: pRARE-luciferase reporter of retinoic acid signaling in PC-3 cells. To be noted: 72 hours. It counts as cell-based, human. How it is done: To determine whether MBD2 protein inhibitors triggered retinoic acid signaling pathway activation, KCC-08 was administered to PC-3 human prostate cancer cells transfected with a heterologous reporter plasmid responsive to the presence of retinoic acid signaling (pRARE-luciferase), and the cells were used to assess reactivation of the retinoic acid response signaling pathway. The cancer cells were treated with a vehicle control or KCC-08 (10 μM) both with and without isotretinoin (5 μM) for 72 hours, and then assayed for luciferase reporter production.
On the technique in general: In a reporter assay the amount or activity of a reporter protein is the signal.

The test system of assay [4] is PC-3 cancer cells. In words: Clonogenic survival. The assay is classed as cell-based, human. As to conditions: 72 hours treatment, colonies ten days later, vehicle control 100.00, 12-27 replicates. How it is done:
To assay for cancer clonogenic survival, PC-3 cancer cells were seeded into 6-well plates at 5,000 cells/well and allowed to attach overnight. Next, the cells were treated for 72 hours with vehicle control or KCC-08, both with and without isotretinoin, washed three times with phosphate-buffered saline, and then placed back into complete growth medium. Ten days later, colonies founded by surviving cells were detected using crystal violet staining.

In a further assay the test system is PC-3 xenograft tumors. In words: PC-3 xenograft growth suppression. As to conditions: KCC-08 i.p. 1 then 0.5 mg/kg, isotretinoin oral 30 mg/kg. The assay is classed as in vivo, Male Fox1-nude mice. How it is done: For cancer xenograft growth suppression, one million human PC-3 prostate cancer cells were suspended in Matrigel and inoculated into the flanks of Male Fox1-nude mice provided by Jackson Laboratory (Bar Harbor, ME). When the resultant xenograft tumors were measurable two weeks later, the tumor-bearing mice were treated with KCC-08, given by intraperitoneal infection in saline for 5 of 7 days at 1 mg/kg for week 1 and then 0.5 mg/kg for 5 of 7 days for week 2. Isotretinoin was given by oral gavage in peanut oil at 30 mg/kg for the same 5 of 7 days as the KCC-08 for weeks 1 and 2. For week 3, isotretinoin was given by oral gavage in peanut oil at 30 mg/kg for 5 of 7 days, and KCC-08 was not administered. Tumors were measured 3 times a week for 3 weeks, and the volume was estimated by using the formula 4/3*Π*width*length*depth.

[5] abbreviates: PC-3, decitabine 0-10 μM four days, then compound 0-10 μM three days.
Setting [6] is: KCC-08 10 μM, isotretinoin 5 μM, vehicle average 1.00.

With `Cc1csc(-c2nnc(Nc3ccc(Oc4ncccc4-c4ccnc(N)n4)cc3)c3ccccc23)c1` [AMG-900], in assay [1], the “growth inhibition of DU-145 cells in combination with decitabine” value was “synergistic growth inhibition”.
Take `CCC1=C[C@@H]2CN(C1)Cc1c([nH]c3ccccc13)[C@@](C(=O)OC)(c1cc3c(cc1OC)N(C)[C@H]1[C@@](O)(C(=O)OC)[C@H](OC(C)=O)[C@]4(CC)C=CCN5CC[C@]31[C@@H]54)C2` [vinorelbine]: the “growth inhibition when combined with decitabine (Bliss independence score sum across all dose combinations greater than zero)” value (“growth inhibition when combined” for short) in the assay on PC-3 cancer cells [2] (setting [5]) is “synergistic growth inhibition”.
Take `COc1cc2ncn(-c3cc(OCc4ccccc4C(F)(F)F)c(C(N)=O)s3)c2cc1OC` [GW843682]: the “growth inhibition when combined” value with PC-3 cancer cells [2] (setting [5]) is given as “synergistic growth inhibition”.
On to `Cn1cc(C2=C(c3cn(CCCSC(=N)N)c4ccccc34)C(=O)NC2=O)c2ccccc21` [RO31-8220], for which the “growth inhibition when combined” value in the assay on PC-3 cancer cells [2] is recorded as “synergistic growth inhibition”.
For `COc1c(C)c2c(c(O)c1C/C=C(\C)CCC(=O)O)C(=O)OC2` [mycophenolic acid], the “growth inhibition when combined” value in the assay on PC-3 cancer cells [2] (setting [5]) is on record as “synergistic growth inhibition”.
For the compound `N.N.O=C([O-])C1(C(=O)[O-])CCC1.[Pt+2]` [carboplatin], the “growth inhibition when combined” value in the assay on PC-3 cancer cells [2] (setting [5]) is “synergistic growth inhibition”.
Consider `Cn1c2ccccc2n2cc(-c3ccc([N+](=O)[O-])cc3)nc12` [KCC-08], for which the “luciferase activity / retinoic acid signaling pathway activation” value in assay [3] (KCC-08 10 μM with or without isotretinoin 5 μM) is “enhanced”. Moreover, in assay [3] (setting [6]), the “RAR Reporter Activity, Average” value is on record as 2.24; the “RAR Reporter Activity, Trial 1” value is reported as 2.08; the “RAR Reporter Activity, Trial 2” value came to 2.31; the “RAR Reporter Activity, Trial 3” value was found to be 1.96. Moreover, in assay [3] (setting [6]), the “RAR Reporter Activity, Trial 4” value is given as 2.46; the “RAR Reporter Activity, Trial 5” value is 2.36; the “RAR Reporter Activity, Trial 6” value is reported as 2.28. In the assay on PC-3 cancer cells [4], the “Clonogenic Survival Relative to Control, Average” value is on record as 96.86. The “Percent average xenograft tumor volume relative to baseline, Average” value with PC-3 xenograft tumors (Day 1) came to 100%. The “Percent average xenograft tumor volume relative to baseline, Average” value with PC-3 xenograft tumors (Day 4) is listed as 151.16%. The “Percent average xenograft tumor volume relative to baseline, Average” value in the assay with PC-3 xenograft tumors (Day 8) amounted to 223.22%. Besides, the “Percent average xenograft tumor volume relative to baseline, Average” value with PC-3 xenograft tumors (Day 11) is 250.94%. The “Percent average xenograft tumor volume relative to baseline, Average” value in the assay on PC-3 xenograft tumors (Day 15) stood at 338.37%. In the assay with PC-3 xenograft tumors (Day 18), the “Percent average xenograft tumor volume relative to baseline, Average” value was 406.04%. Further, the “Percent average xenograft tumor volume relative to baseline, Average” value in the assay with PC-3 xenograft tumors (Day 22) is on record as 452.09%.
`CC[C@@]1(O)C[C@H](O[C@H]2C[C@H](N(C)C)[C@H](O[C@H]3C[C@H](O)[C@H](O[C@H]4CCC(=O)[C@H](C)O4)[C@H](C)O3)[C@H](C)O2)c2c(cc3c(c2O)C(=O)c2c(O)cccc2C3=O)[C@H]1C(=O)OC` [aclarubicin]: the “growth inhibition when combined” value in the assay on PC-3 cancer cells [2] was “synergistic growth inhibition”.
For the compound `CO[C@H]1C[C@H](O[C@H]2CC[C@]3(C)[C@H]4CC[C@]5(C)[C@@H](C6=CC(=O)OC6)CC[C@]5(O)[C@@H]4CC[C@]3(O)C2)O[C@H](C)[C@H]1O` [periplocymarin], in the assay on PC-3 cancer cells [2], the “growth inhibition when combined” value is on record as “synergistic growth inhibition”.
As for `C[C@@H]1O[C@@H](O[C@H]2C[C@@H](O)[C@]3(CO)[C@H]4[C@H](O)C[C@]5(C)[C@@H](C6=CC(=O)OC6)CC[C@]5(O)[C@@H]4CC[C@]3(O)C2)[C@H](O)[C@H](O)[C@H]1O` [ouabain], the “growth inhibition when combined” value in the assay with PC-3 cancer cells [2] (setting [5]) is “synergistic growth inhibition”.
Turning to `CC(=O)O[C@@]12CO[C@@H]1C[C@H](O)[C@@]1(C)C(=O)[C@H](O)C3=C(C)[C@@H](OC(=O)[C@H](O)[C@@H](NC(=O)OC(C)(C)C)c4ccccc4)C[C@@](O)([C@@H](OC(=O)c4ccccc4)[C@H]21)C3(C)C` [docetaxel], the “growth inhibition when combined” value in the assay on PC-3 cancer cells [2] (setting [5]) is listed as “synergistic growth inhibition”.
Regarding `C[C@]12CC[C@H]3[C@@H](CC[C@]4(O)C[C@@H](O)CC[C@]34C=O)[C@@]1(O)CC[C@@H]2C1=CC(=O)OC1` [strophanthidin], in the assay with PC-3 cancer cells [2], the “growth inhibition when combined” value is “synergistic growth inhibition”.
Regarding `Nc1ccn([C@@H]2O[C@H](CO)[C@@H](O)[C@@H]2O)c(=O)n1` [cytarabine], the “growth inhibition when combined” value with PC-3 cancer cells [2] (setting [5]) is “synergistic growth inhibition”.
Regarding `CC(C)[C@@H]1NC(=O)[C@H](C)OC(=O)[C@@H](C(C)C)NC(=O)[C@@H](C(C)C)OC(=O)[C@H](C(C)C)NC(=O)[C@H](C)OC(=O)[C@@H](C(C)C)NC(=O)[C@@H](C(C)C)OC(=O)[C@H](C(C)C)NC(=O)[C@H](C)OC(=O)[C@@H](C(C)C)NC(=O)[C@@H](C(C)C)OC1=O` [valinomycin], the “growth inhibition when combined” value in the assay on PC-3 cancer cells [2] (setting [5]) is “synergistic growth inhibition”.
Take `O=C(O)c1ccc(Nc2ncc3c(n2)-c2ccc(Cl)cc2C(c2c(F)cccc2F)=NC3)cc1` [MLN8054]: the “growth inhibition of DU-145 cells in combination with decitabine” value in assay [1] is “synergistic growth inhibition”.
In the case of `Nc1ccn([C@@H]2O[C@H](CO)[C@@H](O)C2(F)F)c(=O)n1` [gemcitabine], the “growth inhibition when combined” value with PC-3 cancer cells [2] (setting [5]) is listed as “synergistic growth inhibition”.
For the compound `Cc1ccc2c(=O)c3ccccc3n(CCCN)c2c1C.O=C(O)C(=O)O` [ER27319], in the assay on PC-3 cancer cells [2] (setting [5]), the “growth inhibition when combined” value is listed as “synergistic growth inhibition”.
Consider `CC[C@@]1(O)C(=O)OCc2c1cc1n(c2=O)Cc2cc3c(CN(C)C)c(O)ccc3nc2-1` [topotecan], for which, in the assay on PC-3 cancer cells [2] (setting [5]), the “growth inhibition when combined” value is listed as “synergistic growth inhibition”.
In the case of `O=C1NC(=O)c2c1c1c3ccccc3n3c1c1c2c2ccccc2n1C1CCC3O1` [SB218078], the “growth inhibition when combined” value with PC-3 cancer cells [2] (setting [5]) is “synergistic growth inhibition”.
Regarding `COc1cc2c(c(OC)c1OC)-c1ccc(OC)c(=O)cc1[C@@H](NC(C)=O)CC2` [colchicine], the “growth inhibition when combined” value in the assay with PC-3 cancer cells [2] is on record as “synergistic growth inhibition”.
Turning to `Nc1ccc(-c2cccc3c(=O)cc(N4CCOCC4)oc23)cc1` [PI828], the “growth inhibition when combined” value in the assay on PC-3 cancer cells [2] (setting [5]) is on record as “synergistic growth inhibition”.
For the compound `CCCCCCCCCCCCCCCCn1cc[n+](Cc2ccccc2)c1C.[I-]` [NH125], the “growth inhibition when combined” value in the assay with PC-3 cancer cells [2] is given as “synergistic growth inhibition”.
With `COc1ccc(C[C@H]2NC[C@H](O)[C@H]2OC(C)=O)cc1` [anisomycin], the “growth inhibition when combined” value in the assay with PC-3 cancer cells [2] (setting [5]) is on record as “synergistic growth inhibition”.
